{
  "source": "patent US20060270677A1",
  "about": "“Method for the treatment of noise phobia in companion animals” (Wyeth, priority 2005, published 2006)",
  "test": "in vivo",
  "conditions": "male, Beagle, dog, po",
  "text": "In this evaluation 8 male Beagle breed dogs, 6 months to 2 years of age, and at least 10 kg in weight were used. Dogs were housed in individual indoor cages in compliance with standards outlined in the Guide for the Care and Use of Laboratory Animals of the Institute of Laboratory Animal resources, National Research Council. The dogs were fed an appropriate amount of standard commercial dry ration once per day. Fresh tap water in water bowls was provided ad libitum. On the day before the test compounds were administered, food was removed from the dogs by 4:00 pm. Food was withheld until after taking blood samples at the 4 h time point after administration of test materials. Dogs were weighed and ranked by descending weight order and were given physical exams by a veterinarian. The two heaviest dogs were randomly assigned to Group 1 or 2. The second two heaviest dogs were randomly assigned to Group 1 or 2 and so on, until all 8 dogs were placed into either of the two groups. Group 1 with 4 dogs/group, was treated orally with 15 mg/kg of the acetamide test compound and Group 2 was treated orally with 15 mg/kg of the carbonitrile test compound. One week after treatment all dogs were reweighed to ensure correct dosing. Two weeks after treatment, Group 1 was treated orally with 30 mg/kg of the acetamide test compound and Group 2 was treated orally with 30 mg/kg of the carbonitrile test compound. A treatment vial containing an appropriate amount of test compound was provided for each dog. The appropriate amount of vehicle (water containing 0.5% Methocel A4M and 0.01% polysorbate 80) was added to the vial and the contents of the vial were thoroughly mixed. The resultant suspension was withdrawn with an unarmed disposable 12 ml plastic syringe and administered to the dog. Test suspensions were administered to the back of the throat to ensure that they were reliably and completely swallowed by the dog. The vials were rinsed with 0.5 ml vehicle per kg of body weight and the rinsate was administered to the dog. Blood samples were collected at regular time intervals and analyzed for concentration of test compound. The Cmax value (the maximum compound concentration in the plasma) and the Tmax value (the time, after dosing, at which the peak compound concentration was obtained) were determined by observation. For Table I, the term “Acetamide” designates N-methyl-N-[3-(3-methyl-1,2,4-triazolo-[4,3-b]pyridazin-6-yl)phenyl]acetamide; and the term “Carbonitrile” designates 7-(3-pyridyl)pyrazolo[1,5-a]pyrimidine-3-carbonitrile.",
  "data": [
    {"smiles": "N#Cc1cnn2c(-c3cccnc3)ccnc12", "note": "[Carbonitrile, 7-(3-pyridyl)pyrazolo[1,5-a]pyrimidine-3-carbonitrile]", "values": [
      {"measurement": "Cmax", "setting": "15 mg/kg", "value": 3700, "unit": "ng/mL"},
      {"measurement": "Tmax", "setting": "15 mg/kg", "value": 4.25, "unit": "h"},
      {"measurement": "Cmax", "setting": "30 mg/kg", "value": 6390, "unit": "ng/mL"},
      {"measurement": "Tmax", "setting": "30 mg/kg", "value": 8.25, "unit": "h"}
    ]}
  ]
}
